Laboratory results from ChEMBL document CHEMBL1201862, “PubChem BioAssay data set” (2004).
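Values below derive from 48-hour exposures of cells grown in 96-well plates, with endpoints linearly interpolated between the two concentrations bracketing the appropriate inhibition level. Here, GI50 denotes the concentration required for 50% inhibition of growth.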 Calls of active or inactive are those of the source. Cut-off read from the data, not from the text of the source: active = GI50 up to about 1.1 µM and inactive = higher.

Experiments:
Experiment in all cases: DTP human tumour cell line panel, 48 h
[1] = system: MDA-N
[2] = system: UO-31
[3] = system: HOP-92
[4] = system: SW-620
[5] = system: PC-3
[6] = system: HOP-62
[7] = system: A498
[8] = system: K562
[9] = system: SR
[10] = system: HT-29
[11] = system: CCRF-CEM
[12] = system: MCF7
[13] = system: Malme-3M
[14] = system: IGROV-1
[15] = system: SK-MEL-2
[16] = system: M14
[17] = system: NCI-H226
[18] = system: MDA-MB-231
[19] = system: SF-539

Compound | GI50 [1] | GI50 [2] | GI50 [3] | GI50 [4] | GI50 [5] | GI50 [6] | GI50 [7] | GI50 [8] | GI50 [9] | GI50 [10] | GI50 [11] | GI50 [12] | GI50 [13] | GI50 [14] | GI50 [15] | GI50 [16] | GI50 [17] | GI50 [18] | GI50 [19]
COC(=O)c1ccc(NC(=O)O/N=C(\Cl)C(C)C)cc1 | 8.89 µM (inactive) | 15.4 µM (inactive) | 1.81 µM (inactive) | 1.93 µM (inactive) | 17.3 µM (inactive) | 18.7 µM (inactive) | 18.4 µM (inactive) | 1.3 µM (inactive) | 1.18 µM (inactive) | 4.31 µM (inactive) | 0.466 µM (active) | 5.7 µM (inactive) | 1.56 µM (inactive) | 13.9 µM (inactive) | 16.8 µM (inactive) | 2.99 µM (inactive) | 18.9 µM (inactive) | 7.08 µM (inactive) | 
CCc1ccc2c(c1)/C(=C1/Nc3ccccc3C1=O)C(=O)N2 | 34.5 µM (inactive) | 7.38 µM (inactive) | 33.3 µM (inactive) | 63.2 µM (inactive) | 14.5 µM (inactive) | 14.2 µM (inactive) | 4.13 µM (inactive) | 22.3 µM (inactive) | 14.1 µM (inactive) | 25.4 µM (inactive) | 36.1 µM (inactive) | 1.78 µM (inactive) | 35.4 µM (inactive) | 0.124 µM (active) | 17.1 µM (inactive) | 26.7 µM (inactive) | 18.7 µM (inactive) | 34 µM (inactive) | 
CSc1c2c(C)n[nH]c2nn1-c1ccccc1 | > 100 µM (inactive) | 46.7 µM (inactive) |  | 57.1 µM (inactive) | 58.7 µM (inactive) |  | 90.8 µM (inactive) | 47.5 µM (inactive) | 20.2 µM (inactive) | 36 µM (inactive) | 33 µM (inactive) | 92 µM (inactive) | > 100 µM (inactive) |  | > 100 µM (inactive) | 81.7 µM (inactive) | 58.5 µM (inactive) | 18.4 µM (inactive) | 40.4 µM (inactive)
O=[N+]([O-])C(=C(N1CCOCC1)N1CCOCC1)/C(Cl)=C(\Cl)[N+](=O)[O-] | 9.75 µM (inactive) | 6.71 µM (inactive) |  | 2.23 µM (inactive) | 16.4 µM (inactive) | 15.7 µM (inactive) | 20.2 µM (inactive) | 3.69 µM (inactive) | 8.77 µM (inactive) | 4.1 µM (inactive) | 2.65 µM (inactive) | 2.67 µM (inactive) | 1.68 µM (inactive) | 1.41 µM (inactive) | 15.8 µM (inactive) | 6.35 µM (inactive) | 47 µM (inactive) | 3.85 µM (inactive) | 11.6 µM (inactive)
O=P(O)(O)OP(=O)(O)O | > 100 µM (inactive) | > 100 µM (inactive) | > 100 µM (inactive) | > 100 µM (inactive) | > 100 µM (inactive) | > 100 µM (inactive) | > 100 µM (inactive) | > 100 µM (inactive) | > 100 µM (inactive) | > 100 µM (inactive) | > 100 µM (inactive) | > 100 µM (inactive) | > 100 µM (inactive) | > 100 µM (inactive) | > 100 µM (inactive) | > 100 µM (inactive) |  | > 100 µM (inactive) | > 100 µM (inactive)
CC(=O)OCC(OC(C)=O)C1C[C@H]2O[C@@H]3[C@H](C[C@H]2O1)O[C@@]1(C[C@@H]3C)C[C@H](C)[C@@H]2O[C@]3(C[C@@H]2O1)C[C@H]1O[C@H]2[C@H](C)[C@H]4OC(=O)C[C@H]5CC[C@@H]6OC7[C@H]8O[C@]9(CC[C@H]%10CC(=O)[C@H](CC[C@H]%11C[C@@H](C)C(=O)C(C[C@@H]4O[C@H]2C[C@H]1O3)O%11)O%10)CC8O[C@@H]7[C@@H](O9)[C@H]6O5 (some centres undefined) | 0.000321 µM (active) | 0.0388 µM (active) | 0.0611 µM (active) | 0.00438 µM (active) | 0.00337 µM (active) | 0.00505 µM (active) | > 0.434 µM (active) | 0.00123 µM (active) | 0.000233 µM (active) |  | 0.00436 µM (active) | 0.00151 µM (active) |  | 0.00322 µM (active) | 0.0481 µM (active) | 0.00619 µM (active) | 0.00703 µM (active) | 0.0199 µM (active) | 
